Eleven compounds from US5486516A, “Furopyrimidine derivatives” (DowElanco, priority 1993, dated 1996) can be followed below.

Data set [1] relates to Pyricularia oryzae (rice blast). Put plainly: whole plant or invertebrate. It is filed as in vivo. Particulars: foliar, read-out: RICE BLAST control rating.
Data set [2] relates to Southern corn rootworm (Diabrotica undecimpuctata howardi Barber). Nature of the data set: Mite/insect screen, corn rootworm. It is filed as in vivo. Particulars: soil; for mortality at 12 ppm / mortality at 24 ppm: Diabrotica, read-out: CRW results (percent mortality); for mortality at 12 ppm: CRW rate 12.00 ppm. In outline:
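Five 2-3 instar larvae per cup were placed on sandy soil (15 g, with presoaked corn seed) treated 6–12 h earlier with 1 mL test solution, an emulsified acetone/alcohol formulation diluted in water. Cups kept at 23° C; mortality and phytotoxicity assessed as percent after standard exposures.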

Data set [3] concerns southern armyworm (Spodopetra eridania Cramer). Nature of the data set: Mite/insect screen, Southern armyworm. In kind it is in vivo. To be noted: sprayed leaves; for mortality at 200 ppm / mortality at 400 ppm: Spodoptera eridania, read-out: SAW results (percent mortality); for mortality at 200 ppm: rate 200 ppm. In outline: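 Southern armyworm larvae placed in Petri dishes with two excised squash leaves that had been sprayed to runoff (10 psi) with emulsified compound and air-dried for 1 h. Mortality in percent recorded after a standard exposure period; formulation acetone/alcohol plus Toximul R and S, water-diluted.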

The test system of data set [4] is Twospotted spider mites (Tetranychus urticae Koch). Nature of the data set: Mite/insect screen, twospotted spider mites. It is filed as in vivo. To be noted: Tetranychus urticae, sprayed leaves, read-out: SM results (percent mortality); for mortality at 200 ppm: rate 200 ppm; for mortality at 400 ppm: rate 400 ppm. In a few lines:
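Percent mortality, along with phytotoxicity, was read after standard exposure periods. Beforehand, mites established on both surfaces of squash cotyledons received a runoff spray (10 psi) of water-diluted compound formulated in acetone/alcohol with sulfonate/nonionic emulsifiers.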

Data set [5] concerns melon aphids (Aphis gossvpii Glover). Put plainly: Mite/insect screen, melon aphids. In kind it is in vivo. To be noted: sprayed leaves; for mortality at 200 ppm / mortality at 400 ppm: Aphis, read-out: MA results (percent mortality); for mortality at 200 ppm: rate 200 ppm. In a few lines:
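Percent mortality of melon aphids was assessed after standard exposure periods. Infested squash cotyledons had been sprayed on both leaf surfaces until runoff at 10 psi with water-diluted test solutions. Compounds were formulated in acetone/alcohol (50:50) containing emulsifiers.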

In data set [6] the test system is Puccinia recondita tritici (leaf rust). Nature of the data set: Plant pathology screen (Test 1), leaf rust on wheat. Particulars: in Triticum aestivum, foliar, read-out: LEAF RUST control rating.
Data set [7] deals with Pseudoperonospora cubensis (downy mildew). Nature of the data set: Plant pathology screen (Test 1), downy mildew on squash. To be noted: foliar, read-out: DOWN MDEW control rating.
The test system of data set [8] is Erysiphe graminis tritici (powdery mildew). Put plainly: Plant pathology screen (Test 1), powdery mildew on wheat. To be noted: Blumeria graminis, in Triticum aestivum, foliar, read-out: POWD MDEW control rating.
In data set [9] the test system is Botrytis cinerea (gray mold). Put plainly: Plant pathology screen (Test 1), gray mold on grape berries. Particulars: read-out: GRAY MOLD control rating.

As usually defined, the mortality is the share of the test organisms that died.

Take `Cc1cc2c(NCCc3cccc(C(F)(F)F)c3)ncnc2o1` [Example 8, 6-methyl-N-[2-[3-(trifluoromethyl)phenyl]ethyl]furo[2,3-d]pyrimidin-4-amine]: the pest or weed control at 400 µg/mL lay within 20 to 89% in data set [1]; 90 to 100% in [6]; 90 to 100% in data set [7]; 20 to 89% in data set [8]; 0 to 19% in data set [9]. Also, in [2], the mortality at 12 ppm was found to be 0%. Further, the mortality at 24 ppm in [2] (CRW rate 24.00 ppm) is 0%. Further, the mortality at 200 ppm in [3], in data set [4] and in data set [5] was 0% each time. The mortality at 400 ppm in data set [3] (rate 400 ppm), in data set [4] and in [5] (rate 400 ppm) was 0% in each case.

`Cc1oc2ncnc(NCCc3ccc(C(C)(C)C)cc3)c2c1C` [Example 20, N-[2-[4-(t-butyl)phenyl]ethyl]-5,6-dimethylfuro[2,3-d]pyrimidin-4-amine]: the pest or weed control at 400 µg/mL in [1] was 20 to 89%; in data set [6], 90 to 100%; in [7], 90 to 100%; in [8], 0 to 19%; in data set [9], 0 to 19%. The “CRW results (percent mortality)” value in data set [2] (CRW rate 24.00 ppm) came to 0%. Also, the mortality at 12 ppm in data set [2] was 0%. Besides, the mortality at 24 ppm in data set [2] (CRW rate 24.00 ppm) amounted to 0%. Moreover, the mortality at 200 ppm in data set [3], in data set [4] and in [5] was 0% in each case. Also, the mortality at 400 ppm in data set [3] (rate 400 ppm) and in data set [5] (rate 400 ppm) was 0% in each case. The “SAW results (percent mortality)” value in [3] (rate 400 ppm) came out at 0%. In data set [5] (rate 400 ppm), the “MA results (percent mortality)” value was determined as 0%.

For the compound `Cc1oc2ncnc(Oc3ccccc3)c2c1C` [Example 64, 5,6-dimethyl-4-phenoxyfuro[2,3-d]pyrimidine], the pest or weed control at 400 µg/mL fell in the range of 0 to 19% in data set [1]; 20 to 89% in data set [6]; 90 to 100% in data set [7]; 90 to 100% in data set [8]; 0 to 19% in [9]. Also, the mortality at 12 ppm in data set [2] was 0%. Further, in [2] (CRW rate 24.00 ppm), the mortality at 24 ppm amounted to 0%. Further, the mortality at 200 ppm in [3], in data set [4] and in [5] was 0% each time. In addition, the mortality at 400 ppm in [3] (rate 400 ppm), in [4] and in [5] (rate 400 ppm) was 0% in each case.

For `Cc1oc2ncnc(OCCc3ccc(OC(F)(F)F)cc3)c2c1C` [Example 69, 5,6-dimethyl-4-[2-[4-(trifluoromethoxy)phenyl]ethoxy]furo[2,3-d]pyrimidine], the pest or weed control at 400 µg/mL in data set [1] lay within 20 to 89%; in data set [6], 20 to 89%; in data set [7], 0 to 19%; in [8] it was 90 to 100%; in data set [9], 0 to 19%. The mortality at 24 ppm in data set [2] (CRW rate 24.00 ppm) was 0%. In addition, the figures for the mortality at 400 ppm in data set [3] (rate 400 ppm), in data set [4] and in data set [5] (rate 400 ppm) were 0%, 90% and 90%, respectively.

Consider `Cc1cc2c(NCCc3ccc4ccccc4c3)ncnc2o1` [Example 31, 6-methyl-N-[2-(2-naphthalenyl)ethyl]furo[2,3-d]pyrimidine-4-amine], for which the pest or weed control at 400 µg/mL in data set [1] was 20 to 89%; in [6], 90 to 100%; in data set [7] it was 90 to 100%; in data set [8], 20 to 89%; in data set [9], 0 to 19%. In [2], the mortality at 12 ppm worked out at 0%. The mortality at 24 ppm in data set [2] (CRW rate 24.00 ppm) amounted to 0%. The mortality at 200 ppm in data set [3] came to 100%; in data set [4], 20%; in data set [5] it was 90%. Moreover, the figures for the mortality at 400 ppm in data set [3] (rate 400 ppm), in data set [4] and in data set [5] (rate 400 ppm) were 80%, 100% and 0%, respectively.

As to `Cc1cc2c(OCCc3ccc(-c4ccccc4)cc3)ncnc2o1` [Example 7, 4-[2-(1,1'-biphenyl)-4-ylethoxy]6-methylfuro[2,3-d]pyrimidine], the pest or weed control at 400 µg/mL in data set [1] lay in the range of 20 to 89%; in data set [6], 0 to 19%; in data set [7], 20 to 89%; in data set [8], 0 to 19%; in data set [9], 0 to 19%. Further, the mortality at 12 ppm in data set [2] worked out at 0%. Further, the mortality at 24 ppm in [2] (CRW rate 24.00 ppm) is 0%. In addition, the mortality at 200 ppm turned out to be 0% in data set [3], 30% in data set [4] and 100% in data set [5]. Moreover, the mortality at 400 ppm in [3] (rate 400 ppm), in data set [4] and in [5] (rate 400 ppm) was 0% throughout.

Turning to `COc1ccc(CCNc2ncnc3oc(C)c(C)c23)cc1` [Example 1, N-[2-(4-methoxyphenyl)ethyl]-5,6-dimethylfuro[2,3-d]pyrimidin-4-amine], the pest or weed control at 400 µg/mL in data set [1] fell in the range of 90 to 100%; in data set [6], 20 to 89%; in [7], 20 to 89%; in [8], 0 to 19%; in data set [9], 0 to 19%. Also, in [2], the mortality at 12 ppm was 0%. The mortality at 24 ppm in data set [2] (CRW rate 24.00 ppm) stood at 100%. The mortality at 200 ppm in data set [3] came out at 0%; in [4], 0%; in data set [5], 80%. In addition, the mortality at 400 ppm in data set [3] (rate 400 ppm), in data set [4] and in [5] (rate 400 ppm) was 0% each time.

On to `Cc1oc2ncnc(OCCc3ccc4c(c3)OCCO4)c2c1C` [Example 75, 5,6-dimethyl-4-[2-[benzo[b]-1,4-dioxan-6-yl]ethoxy]furo[2,3-d]pyrimidine], for which the pest or weed control at 400 µg/mL in data set [1] lay in the range of 0 to 19%; in data set [6], 0 to 19%; in data set [7], 20 to 89%; in data set [8] it was 0 to 19%; in [9], 0 to 19%. The mortality at 24 ppm in data set [2] (CRW rate 24.00 ppm) was found to be 0%. The mortality at 400 ppm in [3] (rate 400 ppm) stood at 40%; in [4] it was 0%; in data set [5] (rate 400 ppm), 0%.

Regarding `Cc1oc2ncnc(NC(C)(C)Cc3ccccc3)c2c1C` [Example 77, 5,6-dimethyl-N-[1,1-dimethyl-2-phenylethyl]furo[2,3-d]pyrimidin-4-amine], the pest or weed control at 400 µg/mL lay within 90 to 100% in data set [1]; 90 to 100% in data set [6]; 90 to 100% in [7]; 90 to 100% in data set [8]; 0 to 19% in data set [9]. In addition, in data set [2], the mortality at 12 ppm amounted to 0%. In addition, in data set [2] (CRW rate 24.00 ppm), the mortality at 24 ppm is 0%. Moreover, the mortality at 200 ppm in data set [3] turned out to be 0%; in [4] it was 50%; in [5], 100%. Moreover, the mortality at 400 ppm in data set [3] (rate 400 ppm) came to 0%; in [4], 90%; in data set [5] (rate 400 ppm), 80%.

`Cc1oc2ncnc(Oc3ccc(F)cc3)c2c1C` [Example 49, 5,6-dimethyl-4-(4-fluorophenoxy)furo[2,3-d]pyrimidine]: the pest or weed control at 400 µg/mL was in the range of 0 to 19% in data set [1]; 90 to 100% in data set [6]; 0 to 19% in data set [7]; 90 to 100% in [8]; 0 to 19% in data set [9]. Moreover, the mortality at 12 ppm in [2] stood at 0%. Further, the mortality at 24 ppm in [2] (CRW rate 24.00 ppm) stood at 0%. For the same compound, the mortality at 200 ppm was 80% in [3], 0% in [4] and 0% in data set [5]. In addition, the mortality at 400 ppm in [3] (rate 400 ppm), in data set [4] and in data set [5] (rate 400 ppm) was 0% each time.

With `Cc1oc2ncnc(OCCc3ccc(Oc4ccc(C(F)(F)F)cc4)cc3)c2c1C` [Example 41, 5,6-dimethyl-4-[2-[4-[4-(trifluoromethyl)phenoxy]phenyl]ethoxy]furo[2,3-d]pyrimidine], the pest or weed control at 400 µg/mL in [1] fell in the range of 20 to 89%; in data set [6], 90 to 100%; in [7], 90 to 100%; in data set [8] it was 90 to 100%; in data set [9], 0 to 19%. Moreover, the mortality at 12 ppm in [2] turned out to be 0%. The mortality at 24 ppm in data set [2] (CRW rate 24.00 ppm) amounted to 60%. Moreover, the mortality at 200 ppm in data set [3], in [4] and in data set [5] was 0% each time. Further, the mortality at 400 ppm in data set [3] (rate 400 ppm) worked out at 0%; in [4], 100%; in data set [5] (rate 400 ppm), 100%.
